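How tested: cells in 96-well plates exposed to compound for 48 hours at five concentrations. At the GI50, growth is halved. TGI marks complete inhibition of growth.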
Experiments:
Test in all cases: inhibition of tumour cell growth, NCI panel, 48 h
[1] = system: CAKI-1 renal
[2] = system: DU-145 prostate
[3] = system: EKVX NSCLC
[4] = system: HL-60(TB) leukemia
[5] = system: HOP-92 NSCLC
[6] = system: OVCAR-4 ovarian
[7] = system: PC-3 prostate
[8] = system: SK-MEL-28 melanoma
[9] = system: SK-OV-3 ovarian
[10] = system: SW-620 colon

Compound | TGI [1] | TGI [2] | TGI [3] | TGI [4] | TGI [5] | TGI [6] | TGI [7] | TGI [8] | TGI [9] | TGI [10] | GI50 [4]
Cc1nc2nnc(CCCCCCCCc3nnc4nc(C)[nH]n34)n2[nH]1 | > 100 µM | > 100 µM | > 100 µM | > 100 µM | > 100 µM | > 100 µM | > 100 µM | > 100 µM | > 100 µM | > 100 µM | –
C/C(=C\COP(=O)(O)OP(=O)(O)O)CC/C=C(\C)CNc1c(F)c(F)c(F)c(F)c1F | > 100 µM | > 100 µM | > 100 µM | > 100 µM | > 100 µM | > 100 µM | > 100 µM | > 100 µM | > 100 µM | > 100 µM | –
Cc1ccc2c(c1)CC1(Cc3cc(C)ccc3C1=O)C2=O | > 100 µM | > 100 µM | > 100 µM | > 100 µM | > 100 µM | > 100 µM | > 100 µM | > 100 µM | > 100 µM | > 100 µM | –
Cc1[nH]c2c(C)c3c([nH]c4ccc(Cl)cc43)c(C)c2c(=O)c1C | 40.2 µM | > 100 µM | > 100 µM | 9.64 µM | > 100 µM | > 64.1 µM | 22.4 µM | > 100 µM | > 73.8 µM | > 100 µM | –
CNC(=O)OC1/C(C)=C\C(C)C(O)C(OC)CC(C)CC2=C(OC)C(=O)C=C(C2=O)N(C)C(=O)/C(C)=C/C=C\C1OC (configuration not stated) | 20.8 µM | > 41.8 µM | 24.7 µM | 14.1 µM | 16 µM | 22 µM | 26 µM | 19.2 µM | 30 µM | 12.5 µM | 0.918 µM
O=C(OC[C@H]1C[C@H]2C(=O)OCCC[C@H]2O1)c1ccccc1 | > 100 µM | > 100 µM | > 100 µM | > 100 µM | > 100 µM | > 100 µM | > 100 µM | > 100 µM | > 100 µM | > 100 µM | –
COc1ccc(/C=N/n2c(-c3ccccc3)n[nH]c2=O)c(OC)c1 | > 100 µM | > 100 µM | > 100 µM | > 100 µM | > 100 µM | > 86.6 µM | > 100 µM | > 100 µM | > 74.6 µM | > 100 µM | –
Cc1ccc([N+](=O)[O-])cc1S(=O)(=O)Nc1ccc(C2=NN(S(=O)(=O)c3cc([N+](=O)[O-])ccc3C)C(c3ccccc3O)C2)cc1 (configuration not stated) | > 100 µM | > 100 µM | > 100 µM | > 100 µM | > 100 µM | > 100 µM | > 100 µM | > 100 µM | > 100 µM | > 100 µM | –
Cc1c(CCCl)c(Cl)n2c(nc3ccccc32)c1C#N | 2.25 µM | 4.56 µM | 25.3 µM | 0.627 µM | 2.99 µM | 3.29 µM | 2.4 µM | 4.97 µM | > 56.4 µM | 0.801 µM | –
CN(CCNC(=O)c1nn(C)c2c1Cc1ccccc1-2)CCNC(=O)c1nn(C)c2c1Cc1ccccc1-2 | 47.4 µM | 41.5 µM | 72.8 µM | 29 µM | 29.3 µM | 53.1 µM | 47.6 µM | 30.9 µM | 43.7 µM | 38.9 µM | –
CC(C)C1OC(=O)C(Cc2ccccc2)N(C)C(=O)C(C(C)C)OC(=O)C(Cc2ccccc2)N(C)C(=O)C(C(C)C)OC(=O)C(Cc2ccccc2)N(C)C1=O (configuration not stated) | 2.46 µM | 3.03 µM | 2.41 µM | 1.21 µM | 1.3 µM | 1.18 µM | 1.91 µM | 2.41 µM | 2.16 µM | 2.54 µM | –
CCOC(=O)c1cccc(N=NNc2cccc(C(=O)OCC)c2)c1 | > 100 µM | > 100 µM | > 100 µM | > 100 µM | 46.8 µM | 63 µM | > 100 µM | > 100 µM | 93.4 µM | > 100 µM | –
COC(=O)c1sc2c(c1C(=O)OC)C(=Nc1ccc(OC)cc1)SC2=Nc1ccc(OC)cc1 | 5.84 µM | 1.69 µM | 3.02 µM | 0.552 µM | 2.91 µM | 2.83 µM | 1.04 µM | 2.85 µM | 3.37 µM | 0.7 µM | –
COc1ccc(Cl)cc1NC(=O)O/N=C(\Cl)C(C)C | 3.24 µM | 37.4 µM | 13.5 µM | > 24.5 µM | 3.9 µM | 34.1 µM | 32.3 µM | 42.9 µM | 34.7 µM | – | –
Clc1ccc(Cc2nc3cc(Cl)c(Cl)cc3n2CC2CCCN3CCCCC23)cc1 (configuration not stated) | 34.1 µM | 26.2 µM | 23 µM | 25.4 µM | 24.9 µM | 79.4 µM | 21.1 µM | 20.8 µM | 32.8 µM | 31.3 µM | –
C=CCSC1=N/C(=C\c2ccc(C)cc2)C(=O)N1CC=C | > 100 µM | > 100 µM | 34.1 µM | 28.1 µM | 57.5 µM | > 100 µM | 70 µM | > 100 µM | > 100 µM | > 100 µM | –
N#CC1=C(N)OC2=C(CCCc3ccc([N+](=O)[O-])cc32)C1c1ccc(Cl)cc1 (configuration not stated) | > 100 µM | 63.2 µM | 71.7 µM | 7.26 µM | > 100 µM | 28.3 µM | > 100 µM | > 100 µM | > 100 µM | > 100 µM | –
CCCNC(=O)c1cc(OC)c(OC)cc1NC(=O)C12CC3CC(CC(C3)C1)C2 | 41.3 µM | 35.5 µM | 32.3 µM | > 100 µM | 34.6 µM | 33.6 µM | 35.1 µM | 32.6 µM | – | > 100 µM | –
O=C1c2cccc3cc([N+](=O)[O-])cc(c23)C(=O)N1c1ccc(OCCN2CCCC2)cc1 | > 100 µM | > 100 µM | 71.3 µM | 29 µM | > 100 µM | 67.2 µM | > 100 µM | 45.9 µM | – | 95.2 µM | –
O=[N+]([O-])C(/C=C(\Cl)[N+](=O)[O-])=C(N1CCOCC1)N1CCOCC1 | 61 µM | > 100 µM | > 100 µM | 36.8 µM | 76.4 µM | 53.9 µM | > 100 µM | > 100 µM | > 100 µM | – | –
O=C(OC1C#CCSCC#C/C=C\1)c1ccc2c(c1)C(=O)c1ccccc1C2=O (configuration not stated) | > 100 µM | > 100 µM | > 100 µM | > 100 µM | 13.7 µM | > 100 µM | > 100 µM | > 100 µM | 70.6 µM | > 100 µM | –
Cc1ccc(NC(c2ccccc2)P(=O)(c2ccccc2)c2ccccc2)cc1 (configuration not stated) | > 100 µM | > 100 µM | > 100 µM | > 100 µM | 67.4 µM | > 100 µM | > 100 µM | > 100 µM | > 100 µM | > 100 µM | –
C=CCN(C(C)=O)c1cc(OCc2ccccc2)c2c(c1)c(C)cn2S(=O)(=O)c1ccccc1 | > 54.7 µM | > 100 µM | > 50.3 µM | > 100 µM | > 100 µM | > 100 µM | > 78.4 µM | > 100 µM | > 100 µM | > 100 µM | –
O=C1OCOC2(CCCC2)C1c1ccccc1 (configuration not stated) | > 100 µM | > 100 µM | > 100 µM | > 100 µM | > 100 µM | > 100 µM | > 100 µM | > 100 µM | > 100 µM | > 100 µM | –
CC(C)=CC(=O)c1[nH]c2ccccc2c1CC(=O)NCCc1cnc[nH]1 | > 100 µM | > 100 µM | > 100 µM | > 100 µM | > 100 µM | > 100 µM | > 100 µM | > 100 µM | > 100 µM | > 100 µM | –
CC(=O)CC(O)(C(F)(F)Cl)C(F)(Cl)Cl (configuration not stated) | > 10 µM | > 10 µM | > 10 µM | > 10 µM | > 10 µM | > 10 µM | > 10 µM | > 10 µM | > 10 µM | > 10 µM | –
C=CCCCCCCCCCOC1C=CC(O)C(CO)O1 (configuration not stated) | > 100 µM | > 100 µM | > 100 µM | 65.5 µM | > 100 µM | > 100 µM | 86.4 µM | > 100 µM | > 100 µM | > 100 µM | –
